The target in test [1] is T1, human sphingosine kinase (huSPHK1) (Homo sapiens, UniProt Q9NYA1).
T1 construct: made in house; host or cells: CHO and/or COS-7 cells, transiently transfected; raw cell extract after thaw/freeze cycles
In words: Sphingosine kinase activity scintillation proximity assay (SPA) with extracts of transfected CHO or COS-7 cells. In kind it is biochemical. As to conditions: FIG. 4B; read-out: ATP KM. For orientation: In a scintillation proximity assay essentially only radioactivity close to the scintillant gives light.
Experimental: CHO and/or COS-7 cells were cultured in 90% Ham F12 medium, 10% foetal bovine serum, Gentamycin, in T-175 tissue culture flasks in air with 5% CO2 atmosphere at 37° C. CHO and/or COS-7 cells were transiently transfected with the vector pcDNA3 alone or vector containing the human sphingosine kinase cDNA, using the Qiagen reagent Superfect. They were seeded 5×10^6 per 175 cm^2 flask. After 24 hrs, cells were transfected with 10 μg of cDNA mixed with 20 μl Superfect for 6 hrs, washed, and cultured for 2 days in complete Ham medium. They were then trypsinized, centrifuged down at 1500 rpm for 10 min, and resuspended in assay buffer. They underwent 3 thaw/freeze cycles and protein concentration were estimated using the Bradfaord technique (Biorad kit). The protein concentration was adjusted to 1 μg/μl, and aliquots were kept frozen at −20° C. […]
100 μL/well of SPA beads emulsion (corresponding to 0.5 mg/well beads). The plate is covered with a transparent Topseal (Packard), stirred for 1 hour at 800 rpm and counted on a Wallac Trilux. […]
Taking advantage of the property of these supports, a two-steps assay was set up (see FIG. 1). […] The beads settle down for an hour, and the plate is read on a scintillation counter.
Optimization of assay conditions need also the determination of adequate quantities of ATP, sphingosine, and enzyme concentration. […]

The target in test [2] is sphingosine kinases (SPHKs) (Homo sapiens, UniProt Q9NYA1). As to conditions: cited from earlier work.

SMILES strings stand for the structures.

The Km is the substrate concentration at which the rate is half of its maximum.

Sequence of sphingosine kinases (SPHKs) (Q9NYA1 whole entry): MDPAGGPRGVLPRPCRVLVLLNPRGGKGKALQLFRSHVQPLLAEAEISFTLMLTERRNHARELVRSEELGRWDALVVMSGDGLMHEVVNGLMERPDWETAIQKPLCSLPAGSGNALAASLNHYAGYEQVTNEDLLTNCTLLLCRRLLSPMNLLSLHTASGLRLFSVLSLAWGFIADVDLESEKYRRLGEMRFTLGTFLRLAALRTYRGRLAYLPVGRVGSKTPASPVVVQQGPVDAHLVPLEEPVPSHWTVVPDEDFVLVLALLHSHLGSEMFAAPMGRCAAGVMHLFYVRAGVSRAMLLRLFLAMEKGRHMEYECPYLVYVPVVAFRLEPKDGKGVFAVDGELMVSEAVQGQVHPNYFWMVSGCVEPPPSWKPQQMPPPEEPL
T1 sequence (Q9NYA1 whole entry): as above

Turning to `Nc1ncnc2c1ncn2[C@@H]1O[C@H](COP(=O)(O)OP(=O)(O)OP(=O)(O)O)[C@@H](O)[C@H]1O` [ATP], the Michaelis-Menten constant (Km) in test [1] was ~30 µM.

In the case of `CCCCCCCCCCCCC/C=C/[C@@H](O)[C@@H](N)CO` [Sphingosine], in test [2], the Km was 5 µM.

The record behind these values is patent publication US6723525B2, “Methods and compositions for screening modulators of lipid kinases” (Warner-Lambert Company, priority 2000, dated 2004).
